This passage reports T/C results from PubChem BioAssay AID190 (DTP/NCI, 2004).

Each structure is given as a SMILES string. Where “and” joins values, the source holds several entries; their conditions need not be identical. Identical values can stand only once. Toxic doses and inconclusive results are not listed.

The assay relates to AKR/Lw mice, AKR lymphoma ip, median survival T/C. Kind of assay: NCI In Vivo Anticancer Drug Screen. Data for tumor model Lymphoma AKR (Transplanted) (intraperitoneal) in AKR/Lw mice. The following applies: endpoint: median survival time, higher = longer survival. Here is the method: The antitumor activity of compounds was measured in mice bearing transplantable tumors. Survival or tumor size were measured and the results are expressed as the measurement made in the treated group (T) divided by the measurement made in the vehicle treated control group (C). The tumor model used in this assay is Lymphoma AKR (Transplanted) (intraperitoneal) in AKR/Lw mice

Consider `Nc1ncn(C2OC(CO)C(O)C2O)c(=O)n1` (configuration not stated), for which the T/C is, setting by setting: (dose: 0.06 mg/kg/injection, schedule: Q04DX008 (ip), vehicle: saline) 116 % of control; (dose: 0.12 mg/kg/injection, schedule: Q04DX004 (ip), vehicle: saline) 109 % of control; (dose: 0.25 mg/kg/injection, schedule: Q04DX004 (ip), vehicle: saline) 118 % of control; (dose: 0.38 mg/kg/injection, schedule: Q04DX003 (ip), vehicle: saline) 88 % of control; (dose: 0.5 mg/kg/injection, schedule: Q04DX008 (ip), vehicle: saline) 180 % of control; (dose: 0.75 mg/kg/injection, schedule: Q01DX009 (ip), vehicle: water) 240 % of control. For the same compound, the T/C runs as follows: (dose: 1.0 mg/kg/injection, schedule: Q04DX004 (ip), vehicle: saline) 152 % of control; (dose: 1.0 mg/kg/injection, schedule: Q04DX008 (ip), vehicle: saline) 155 % of control; (dose: 1.5 mg/kg/injection, schedule: Q01DX009 (ip), vehicle: saline) 92 % of control; (dose: 1.5 mg/kg/injection, schedule: Q01DX009 (ip), vehicle: water) 153 % of control; (dose: 2.0 mg/kg/injection, schedule: Q04DX004 (ip), vehicle: saline) 185 % of control; (dose: 2.0 mg/kg/injection, schedule: Q04DX008 (ip), vehicle: saline) 159 % of control. Besides, the T/C was 95 % of control and 114 % of control (dose: 2.5 mg/kg/injection, schedule: Q01DX001 (ip), vehicle: saline); 122 % of control (dose: 2.5 mg/kg/injection, schedule: Q04DX003 (ip), vehicle: saline); 265 % of control (dose: 3.0 mg/kg/injection, schedule: Q01DX009 (ip), vehicle: water); 150 % of control and 252 % of control (dose: 3.0 mg/kg/injection, schedule: Q04DX004 (ip), vehicle: saline); 150 % of control (dose: 3.0 mg/kg/injection, schedule: Q04DX008 (ip), vehicle: saline); 163 % of control and 223 % of control (dose: 4.4 mg/kg/injection, schedule: Q04DX004 (ip), vehicle: saline). The T/C (dose: 4.4 mg/kg/injection, schedule: Q04DX008 (ip), vehicle: saline) is 166 % of control and 180 % of control; the T/C (dose: 5.0 mg/kg/injection, schedule: Q04DX003 (ip), vehicle: saline) is 124 % of control; the T/C (dose: 6.0 mg/kg/injection, schedule: Q01DX001 (ip), vehicle: saline) is 92 % of control and 121 % of control; the T/C (dose: 6.0 mg/kg/injection, schedule: Q01DX009 (ip), vehicle: water) was 96 % of control; the T/C (dose: 6.25 mg/kg/injection, schedule: Q01DX001 (ip), vehicle: saline) was 90 % of control; the T/C (dose: 10.0 mg/kg/injection, schedule: Q04DX003 (ip), vehicle: saline) is 124 % of control. Further, the T/C is 163 % of control (dose: 10.0 mg/kg/injection, schedule: Q04DX004 (ip), vehicle: saline); 152 % of control and 169 % of control (dose: 10.0 mg/kg/injection, schedule: Q04DX008 (ip), vehicle: saline); 162 % of control (dose: 12.0 mg/kg/injection, schedule: Q01DX001 (ip), vehicle: saline with Tween-80); 92 % of control and 121 % of control (dose: 12.0 mg/kg/injection, schedule: Q01DX001 (ip), vehicle: saline); 166 % of control (dose: 12.0 mg/kg/injection, schedule: Q04DX003 (ip), vehicle: water); 105 % of control and 112 % of control (dose: 12.5 mg/kg/injection, schedule: Q01DX001 (ip), vehicle: saline). For the same compound, the T/C (dose: 24.0 mg/kg/injection, schedule: Q01DX001 (ip), vehicle: saline with Tween-80) is 178 % of control; the T/C (dose: 30.0 mg/kg/injection, schedule: Q01DX001 (ip), vehicle: saline) was 164 % of control; the T/C (dose: 40.0 mg/kg/injection, schedule: Q01DX001 (ip), vehicle: saline) is 103 % of control; the T/C (dose: 48.0 mg/kg/injection, schedule: Q01DX001 (ip), vehicle: saline with Tween-80) was 206 % of control; the T/C (dose: 80.0 mg/kg/injection, schedule: Q01DX001 (ip), vehicle: saline) was 119 % of control; the T/C (dose: 96.0 mg/kg/injection, schedule: Q01DX001 (ip), vehicle: saline with Tween-80) is 375 % of control. Further, the T/C by setting is: (dose: 15.0 micrograms/kg/injection, schedule: Q01DX009 (ip), vehicle: saline) 113 % of control; (dose: 30.0 micrograms/kg/injection, schedule: Q01DX009 (ip), vehicle: saline) 165 % of control; (dose: 60.0 micrograms/kg/injection, schedule: Q01DX009 (ip), vehicle: saline) 150 % of control.

As for `CC1(C)N=C(N)N=C(N)N1c1cc(Cl)c(Cl)cc1Cl`, the T/C is, setting by setting: (dose: 25.0 mg/kg/injection, schedule: Q01DX001 (ip), vehicle: Klucel (hydroxypropylcellulose) (HPC)) 106 % of control; (dose: 35.0 mg/kg/injection, schedule: Q01DX001 (ip), vehicle: Klucel (hydroxypropylcellulose) (HPC)) 100 % of control; (dose: 50.0 mg/kg/injection, schedule: Q01DX001 (ip), vehicle: Klucel (hydroxypropylcellulose) (HPC)) 106 % of control.
